Laboratory results reported in US20130189764A1, “SELECTIVE GROWTH MEDIA” (Oxide Limited, priority 2000, published 2013).
≈ marks a conversion by molar mass, not a printed value.

Key:
Format in all cases: cell-based
[1] = test system: Citrobacter freundii, Enterobacter aerogenes, Enterobacter cloacae; assay: Bioscreen growth in Lab-Lemco broth (Example 9A), other strains; conditions: 128 μg/ml, Lab-Lemco broth pH 6.0, 37° C., other strains tested
Experimental: (§1) […] […] Plates were then covered, incubated at 37° C., and the opacity of the organism suspensions measured using a Bioscreen instrument (a semi-automated microbiological growth analyser, available from Thermolabsystems, Ashford, Middlesex, U.K.).
(§2) The results are shown in FIG. 13, which is a graph of optical density against time (in hours). The optical density readings were taken in “wide band” (wb) mode, i.e. using white light without any filter.

[2] = test system: Salmonella typhimurium OCC 626; assay: mixed culture viable count in Nutrient Broth No. 2 (Example 9B); conditions: 128 μg/ml, Nutrient Broth No. 2, mixed culture with Citrobacter, 37° C.
Experimental: (§3) L-Pyroglutamyl-L-aminoethylphosphonate was added to Oxoid Nutrient Broth No. 2 (final concentration=128 μg/ml) contained in a universal tube in a water bath at 37° C. Citrobacter freundii OCC 370 and Salmonella typhimurium OCC 626 were grown overnight in Nutrient Broth No. 2 at 37° C., diluted 1 in 1000 in Maximal Recovery Diluent and amounts added to the Nutrient Broth to give final concentrations of about 10^4 cfu/ml of each organism. At intervals samples were taken and spread on XLD and the number of red colonies with black centres enumerated as Salmonella and yellow ones as Citrobacter.
(§4) The results are shown in FIG. 14, which is a graph of Log10 viable count (cfu/ml) against time (in hours). The plots for C. freundii are shown by lozenge symbols, whist those for S. typhimurium are shown by squares. Filled symbols and solid lines show results in the presence of Pyr-AEP, empty symbols and dotted lines show results in the absence of Pyr-AEP.

[3] = test system: Citrobacter freundii OCC 370; assay: as above; conditions: 128 μg/ml, Nutrient Broth No. 2, mixed culture with Salmonella, 37° C.
Experimental: as §3, §4

[4] = test system: Salmonella typhimurium and Salmonella worthington; assay: Bioscreen growth in Lab-Lemco broth (Example 9A), Salmonella strains; conditions: 128 μg/ml, Lab-Lemco broth pH 6.0, 37° C.
Experimental: as §1, §2

[5] = test system: Enterobacter aerogenes OCC720; assay: MIC from Bioscreen growth curves in various media (Example 13)
Experimental: (§5) In general, media containing a higher concentration of short chain peptides, for example hydrolysed casein, reduced the effectiveness of the inhibitor. Thus, Pyr-AEP was dissolved in deionised water (51.2 mg/ml), filter sterilised, and amounts of the solution added to autoclaved Bacteriological Peptone, Casein Hydrolysate, Lab-Lemco broth and Proteose Peptone (20 g/l; pH 7.3) to give a dilution series of 1,477, 739, 369, 185 μg/ml. Volumes ([…]) of these solutions were then pipetted into the wells of Bioscreen microtitre plates and 30 μl quantities of 1 in 10,000 dilutions of overnight cultures of Citrobacter freundii OCC 261, Enterobacter aerogenes OCC 720, Salmonella enteritidis OCC 723 and Salmonella virchow OCC 703 added. Plates were then covered, incubated at 37° C., and the opacity of the organism suspensions, measured using a Bioscreen instrument.

[6] = test system: Citrobacter freundii OCC261; assay: as above
Experimental: as §5

[7] = test system: Salmonella enteritidis OCC723; assay: as above
Experimental: as §5

[8] = test system: Salmonella virchow OCC703; assay: as above
Experimental: as §5

## C[C@H](NC(=O)[C@@H]1CCC(=O)N1)P(=O)(O)O [Pyr-AEP, L-pyroglutamyl-L-1-aminoethylphosphonic acid]
[1]
  growth (optical density) in presence of the agent: inhibited
[2]
  effect on growth (Log10 viable count): no significant effect
[3]
  effect on growth (Log10 viable count): completely inhibitory
[4]
  growth (optical density) in presence of the agent: not inhibited
[5]; Enterobacter aerogenes OCC720, Bacteriological Peptone
  Minimum inhibitory concentration: 671 mg/L (≈ 2.84 mM)
[5]; Enterobacter aerogenes OCC720, Casein Hydrolysate
  Minimum inhibitory concentration: >1343 mg/L
[5]; Enterobacter aerogenes OCC720, Lab-Lemco
  Minimum inhibitory concentration: 336 mg/L (≈ 1.42 mM)
[5]; Enterobacter aerogenes OCC720, Proteose Peptone
  Minimum inhibitory concentration: >1343 mg/L
[6]; Citrobacter freundii OCC261, Bacteriological Peptone
  Minimum inhibitory concentration: 168 mg/L (≈ 0.711 mM)
[6]; Citrobacter freundii OCC261, Casein Hydrolysate
  Minimum inhibitory concentration: >1343 mg/L
[6]; Citrobacter freundii OCC261, Lab-Lemco
  Minimum inhibitory concentration: 168 mg/L (≈ 0.711 mM)
[6]; Citrobacter freundii OCC261, Proteose Peptone
  Minimum inhibitory concentration: 1343 mg/L (≈ 5.69 mM)
[7]; Salmonella enteritidis OCC723, Bacteriological Peptone
  Minimum inhibitory concentration: 671 mg/L (≈ 2.84 mM)
[7]; Salmonella enteritidis OCC723, Casein Hydrolysate
  Minimum inhibitory concentration: >1343 mg/L
[7]; Salmonella enteritidis OCC723, Lab-Lemco
  Minimum inhibitory concentration: 1343 mg/L (≈ 5.69 mM)
[7]; Salmonella enteritidis OCC723, Proteose Peptone
  Minimum inhibitory concentration: 1343 mg/L (≈ 5.69 mM)
[8]; Salmonella virchow OCC703, Bacteriological Peptone
  Minimum inhibitory concentration: 671 mg/L (≈ 2.84 mM)
[8]; Salmonella virchow OCC703, Casein Hydrolysate
  Minimum inhibitory concentration: >1343 mg/L
[8]; Salmonella virchow OCC703, Lab-Lemco
  Minimum inhibitory concentration: 1343 mg/L (≈ 5.69 mM)
[8]; Salmonella virchow OCC703, Proteose Peptone
  Minimum inhibitory concentration: 1343 mg/L (≈ 5.69 mM)
